{"source": "patent US20240261236A1", "about": "“METHODS OF USING NMDA RECEPTOR ANTAGONISTS” (Seelos Therapeutics, Inc., priority 2021, published 2024)", "key": {"[1]": {"tested_on": "adults with major depressive disorder (MDD) who are at imminent risk of suicide", "test": "C-SSRS, Phase 2 Part 1", "conditions": "90 mg IN+SOC; for C-SSRS score (yes or no) for suicidal ideation: 24 hours post-administration, baseline yes"}, "[2]": {"tested_on": "adults with major depressive disorder (MDD) who are at imminent risk of suicide", "test": "MOAA/S sedation, Phase 2 Part 1"}, "[3]": {"conditions": "Leung and Baillie 1986; cited from earlier work"}, "[4]": {"tested_on": "adults with major depressive disorder (MDD) who are at imminent risk of suicide", "test": "MADRS Total, Phase 2 Part 1 open-label", "type": "in vivo, human", "conditions": "for MADRS mean score: baseline 39.4; for MADRS remission rate (a score of less than 12) / MADRS response rate: summary through Day 29/30", "excerpt": "The Montgomery-Åsberg Depression Rating Scale (MADRS) is a diagnostic questionnaire that can be used to measure the severity of a depressive episode in a subject. In some embodiments, the MADRS can be used to measure suicidal ideation. For example, the MADRS includes 10 items directed to the following: 1) apparent sadness (e.g., representing despondency, gloom and despair that is more than just ordinary transient low spirits that is reflected in speech, facial expression, and posture); 2) reported sadness (e.g., representing reports of depressed mood, regardless of whether it is reflected in appearance or not and can include low spirits, despondency or the feeling of being beyond help and without hope); 3) inner tension (e.g., representing feelings of ill-defined discomfort, edginess, inner turmoil, mental tension mounting to either panic, dread or anguish); 4) reduced sleep (e.g., representing the experience of reduced duration or depth of sleep compared to the subject's own normal pattern when well); 5) reduced appetite (e.g., representing the feeling of a loss of appetite compared with when-well); 6) concentration difficulties (e.g., representing difficulties in collecting one's thoughts mounting to an incapacitating lack of concentration); 7) lassitude (e.g., representing difficulty in getting started or slowness in initiating and performing everyday activities); 8) inability to feel (e.g., representing the subjective experience of reduced interest in the surroundings, or activities that normally give pleasure, and the ability to react with adequate emotion to circumstances or people is reduced); 9) pessimistic thoughts (e.g., representing thoughts of guilt, inferiority, self-reproach, sinfulness, remorse and ruin); and 10) suicidal thoughts (e.g., representing the feeling that life is not worth living, that a natural death would be welcome, suicidal thoughts, and preparations for suicide). Each item is rated from 0 units to 6 units, with 0 reflecting that the subject is not at all as described by the item and 6 reflecting that the subject is extremely like what is described by the item. […] As another example, for suicidal thoughts, a score of 0 units can indicate that the subject enjoys life or takes it as it comes; a score of 2 units can indicate that the subject is weary of life and may have fleeting suicidal thoughts; a score of 4 units can indicate that the subject feels he or she would probably be better off dead (e.g., suicidal thoughts are common, and suicide is considered as a possible solution, but without specific plans or intention); and a score of 6 units can indicate that the subject has explicit plans for suicide when there is an opportunity (e.g., the subject has made active preparations for suicide). Thus, the total score, after summation of each score for each item, is on a scale of 0 units to 60 units.\nThe study schedule is identical for Parts 1 and 2. After admission to the emergency room or hospital, each subject will participate in a 1 to 2 day screening phase, a 16-day treatment phase including SOC during which study drug will be administered 2 times per week, for a total of 5 doses across the 16-day treatment period and a 2-week safety follow-up phase for a total of up to 5 weeks of study participation. Subjects will be treated as inpatients for approximately 7 days (including screening), and assuming the subject meets readiness for discharge criteria, will be discharged on Day 6 to continue the trial as outpatients, provided it is clinically appropriate to do so. Subjects will return to the clinic to receive study drug and to undergo study assessments 2 times per week until Day 16. Subjects will be evaluated for efficacy using multiple psychometric scales and for safety using clinical laboratory assessments, electrocardiograms (ECGs), vital signs, and physical examinations. […]"}}}
{"smiles": "CNC1(c2ccccc2Cl)CCCCC1=O", "note": "(racemic) [intranasal racemic ketamine, 1:1 mixture of the two enantiomers of ketamine: (R)-2-(2-chlorophenyl)-2-(methylamino)cyclohexanone and (S)-2-(2-chlorophenyl)-2-(methylamino)cyclohexanone]", "values": [{"measurement": "C-SSRS score (yes or no) for suicidal ideation", "setting": "[1]; Subject 1", "result": "no"}, {"measurement": "C-SSRS score (yes or no) for suicidal ideation", "setting": "[1]; Subject 2", "result": "no"}, {"measurement": "C-SSRS scores for suicidal ideation and suicidal behavior", "setting": "[1]; both subjects, remainder of the study", "result": "no"}, {"measurement": "MOAA/S score", "setting": "[2]; 90 mg IN+SOC, Subject 1, 15 minutes post-administration, pre-dose 5 units", "result": 4, "unit": "units"}, {"measurement": "MOAA/S score", "setting": "[2]; 90 mg IN+SOC, Subject 1, 30 minutes", "result": 5, "unit": "units"}, {"measurement": "MOAA/S score", "setting": "[2]; 90 mg IN+SOC, Subject 2, throughout the trial", "result": 5, "unit": "units"}, {"measurement": "sedation", "setting": "[2]; 90 mg IN+SOC, Subjects 1 and 2, in contrast to intranasal (S)-ketamine", "result": "little to no sedation"}, {"measurement": "subjects with MOAA/S score of 5 units at all time-points", "setting": "[2]; Day 1", "result": "5 of 7 subjects"}, {"measurement": "MOAA/S score (no one had a score below)", "setting": "[2]; Day 1, 7 subjects", "result": "≥ 4", "unit": "units"}, {"measurement": "anesthetic activity", "setting": "[3]", "result": "anesthetic activity"}, {"measurement": "MADRS Total", "setting": "[4]; 90 mg IN+SOC, Subject 1, 24 hours post-administration, baseline 35 units", "result": 8, "unit": "units"}, {"measurement": "MADRS Total", "setting": "[4]; 90 mg IN+SOC, Subject 2, 24 hours post-administration, baseline 38 units", "result": 15, "unit": "units"}, {"measurement": "MADRS Total", "setting": "[4]; 90 mg IN+SOC, Subject 2, Day 8, after second dose on Day 4", "result": 16, "unit": "units"}, {"measurement": "MADRS Total reduction", "setting": "[4]; 90 mg IN+SOC, both subjects, 24 hours", "result": "> 50", "unit": "%"}, {"measurement": "MADRS mean (SD) change from baseline", "setting": "[4]; 17 subjects enrolled, 24 hours post-dose", "result": "−24.9 (8.34)"}, {"measurement": "MADRS mean (SD) change from baseline", "setting": "[4]; 17 subjects enrolled, Day 16", "result": "−31.6 (7.31)"}, {"measurement": "subjects who experienced MADRS remission", "setting": "[4]; 24 hours post-dose", "result": 35.5, "unit": "%"}, {"measurement": "subjects who experienced MADRS response", "setting": "[4]; 24 hours post-dose", "result": 76.5, "unit": "%"}, {"measurement": "MADRS mean score", "setting": "[4]; Day 1", "result": 14.5}, {"measurement": "subjects who experienced MADRS remission", "setting": "[4]; Day 16", "result": 78.6, "unit": "%"}, {"measurement": "subjects who experienced MADRS response", "setting": "[4]; Day 16", "result": 92.9, "unit": "%"}, {"measurement": "MADRS mean score", "setting": "[4]; Day 16", "result": 7.4}, {"measurement": "MADRS mean score", "setting": "[4]; Day 29", "result": 6.3}, {"measurement": "MADRS mean (SD) change from baseline", "setting": "[4]; final follow-up on Day 29/30", "result": "−32.1 (7.4)"}, {"measurement": "mean MADRS score", "setting": "[4]; final follow-up on Day 29/30", "result": "6.3 (6.60)"}, {"measurement": "subjects who experienced MADRS remission", "setting": "[4]; study end (Day 29/30)", "result": 76.9, "unit": "%"}, {"measurement": "subjects who experienced MADRS response", "setting": "[4]; study end (Day 29/30)", "result": 100, "unit": "%"}, {"measurement": "MADRS remission rate (a score of less than 12)", "setting": "[4]; Day 1", "result": 23.5, "unit": "%"}, {"measurement": "MADRS response rate", "setting": "[4]; Day 1", "result": 76.5, "unit": "%"}, {"measurement": "MADRS remission rate (a score of less than 12)", "setting": "[4]; Day 16", "result": 78.6, "unit": "%"}, {"measurement": "MADRS response rate", "setting": "[4]; Day 16", "result": 92.9, "unit": "%"}, {"measurement": "MADRS response rate", "setting": "[4]; Day 29, 14 days after the last dose on Day 15", "result": 100, "unit": "%"}]}
